Reference: patent US12529017B2, “Detergent composition comprising a lipase” (Novozymes A/S, priority 2020, dated 2026)

B1: Lipase 2: Thermomyces lanuginosus lipase (TLL) SEQ ID NO: 1 with substitutions E1C+D27R+G38A+F51V+D96E+K981+D111A+G163K+H198S+Y220F+T231R+N233C+D254S+P256T (Novozymes A/S) (protein, listed as Thermomyces lanuginosus)
chain: CVSQDLFNQFNLFAQYSAAAYCGKNNRALAGTNITCTANACPEVEKADATVLYSFEDSGVGDVTGFLALDNTNKLIVLSFRGSRSIENWIGNLNFELIEINDICSGCRGHAGFTSSWRSVADTLRQKVEDAVREHPDYRVVFTGHSLGGALATVAGADLRGNKYDIDVFSYGAPRVGNRAFAEFLTVQTGGTLYRITSTNDIVPRLPPREFGYSHSSPEFWIKSGTLVLVRRCDIVKIEGIDATGGNNQPNIPSITAHLWYFGLIGTCL
modifications: mat_peptide (1)..(269)

Assay: Butyric acid release (odor) from lipase washed butter swatches by SPME-GC, Model E1 detergent
Experimental: The butyric acid release (odor) from the lipase washed swatches were measured by Solid Phase Micro Extraction Gas Chromatography (SPME-GC) using the following method.
40 mL of Model E1 detergent wash liquor was added to a 50 mL test tube. CS-10 butter swatches (CFT) were prepared from 5×5 cm swatches as round punch-outs with a 2-cm diameter. The butter swatches were prepared using methods similar to those described in Example 1. Lipase and methyl ricinoleate (Sigma-Aldrich R8750) were added to the tubes according to the table below, followed by the addition of 10 steel balls and 2 CS-10 swatches per tube. The tubes were continuously agitated at 40 rpm for 25 minutes at 20° C. The samples were then rinsed with cold water for 5 min and finally dried on filter paper for 16 hours.
The dried CS-10 swatches were transferred to Gas Chromatograph (GC) vials, which were then sealed. The samples were incubated at 30° C. for 24 hours, heated to 140° C. for 30 minutes, and stored at 20-25° C. for at least 4 hours before analysis. The analyses were performed on a Shimadzu Nexis GC-2030 equipped with a Carboxen PDMS SPME fiber (85 μm). Sampling from each GC vial was performed at 50° C. for 8 minutes with the SPME fiber in the head-space over the textile pieces as the sampled compounds were subsequently injected onto the column (injector temperature=250° C. Column flow=2 mL helium/minute. Column over temperature gradient: 0 minute=50° C., 2 minutes=50° C., 6 minutes 45 seconds=240° C.). Detection was performed using a Flame Ionization Detector (FID). Retention time for butyric acid was identified using an authentic standard. The area of each peak was measured and compared to the area of the reference peak (Lipase 2, no methyl ricinoleate). The data presents the peak sizes as the % peak size relative to the corresponding peak size from the Lipase 2 alone wash conditions. The experiment was performed twice. The Coefficient of Variation (CV) was 5%.

| Molecule | Butyric acid peak size normalized to lipase alone (%) (methyl ricinoleate 1 mM, with Lipase 2, 25 minutes at 20° C.) | Butyric acid peak size normalized to lipase alone (%) (methyl ricinoleate 1 mM, without Lipase 2, 25 minutes at 20° C.) | Butyric acid peak size normalized to lipase alone (%) (methyl ricinoleate 5 mM, with Lipase 2, 25 minutes at 20° C.) | Butyric acid peak size normalized to lipase alone (%) (methyl ricinoleate 5 mM, without Lipase 2, 25 minutes at 20° C.) | Butyric acid peak size normalized to lipase alone (%) (Lipase 2 alone, no methyl ricinoleate (reference peak), 25 minutes at 20° C.) |
| --- | --- | --- | --- | --- | --- |
| CCCCCC[C@@H](O)C/C=C\CCCCCCCC(=O)OC [Methyl ricinoleate, methyl ricinoleate] | 88 | 0 | 89 | 0 | – |
| B1 | – | – | – | – | 100 |
